Experimental data as given in patent publication US20210052719A1, “A UNIVERSAL VACCINE AGAINST INFLUENZA” (Development Center for Biotechnology, priority 2017, published 2021).
No end group written: not given here.

Key:
[1] = antibody generation by immunizing mice with peptide, serum IgG by ELISA; assay type: in vivo, BALB/c and C57BL/6 mice; settings: for induction of antibody (specific anti-JJ IgG): 5 μg, 15 μg, or 45 μg dose, ELISA with JJ peptide coated, FIG. 2A, 2B
Description: In this example, the peptide antigens in accordance with embodiments of the invention were used to induce antibody formation in mice. BALB/c and C57BL/6 mice (6-8 weeks old) were obtained from BioLASCO Taiwan (Taipei, Taiwan) or National Laboratory Animal Center (Taipei, Taiwan).
[…] Each group of mice was injected with a different peptide (Exp0-Exp5) solution as an antigen. For the first immunization, each mouse was given a subcutaneous injection with 100 μL (containing […] each) of the above prepared antigen solution.
The second injection was given 10-14 days after the first injection. The solution for the second injection was prepared by mixing each peptide (6 different peptides, Exp0-Exp5, each at 1:1 mix) in Freund's incomplete adjuvant. The injections were repeated for subsequent immunizations every 10-14 days after the previous injections until antibodies could be detected in sera, which took from 3-6 injections.
Mouse sera were collected at the following time points: preimmunization and at the middle time point between two adjacent injections. Once the antibodies became detectable in sera, the serum collections were performed every two weeks until antibodies could no longer be detected, which typically took about half a year. The serum collections were performed from the cheeks of the mice. Each time, 100 uL or less of blood was collected and the collection frequency was about once every two weeks. At the end of the experiments, mice were euthanized with carbon dioxide.
Antibody titers were determined using ELISA. First, a capture antibody (e.g., JJ peptide or various subtypes of hemagglutinins or fragments thereof) was coated on a 96-well microplate (100 μL per well of the diluted capture antibody). The plate was sealed and incubated at 4° C. overnight. Then, 100 μL of sample (e.g., antiserum) or standards in sample dilution buffer were added per well. […]
(§1) After the reaction, 50 μL of stop solution (acid solution) was added to each well. Then, the optical density of each well was measured immediately, using a microplate reader set to 450 nm.

[2] = system: influenza viruses of the H3 subtype; design: species or system influenza virus
[3] = system: H3 subtype of hemagglutinin; test: ELISA antibody titers against hemagglutinin subtypes; assay type: binding, influenza virus; settings: FIG. 3
Description: (§2) Antibody titers were determined using ELISA. First, a capture antibody (e.g., JJ peptide or various subtypes of hemagglutinins or fragments thereof) was coated on a 96-well microplate (100 μL per well of the diluted capture antibody). The plate was sealed and incubated at 4° C. overnight. Then, 100 μL of sample (e.g., antiserum) or standards in sample dilution buffer were added per well. The plate was sealed and incubated at room temperature for 1 hr.
(§3) After incubation, 100 μL of a detection antibody (e.g., a horseradish peroxidase (HRP) coupled antibody), diluted in antibody dilution buffer, was added to each well. The plate was sealed and incubated at room temperature for 1 hr. Then, 200 μL of substrate solution (3,3′,5,5′-tetramethylbenzidine (TMB)) was added to each well. The reaction mixtures were incubated for 20 minutes at room temperature, without exposing the plate to direct light.
as §1

[4] = system: H1 subtype of hemagglutinin; test: as above; assay type: binding, influenza virus; settings: FIG. 3
Description: as §2, §3, §1

[5] = system: H5 subtype of hemagglutinin; assay type: binding, influenza virus
[6] = system: influenza viruses of the H1 subtype; design: species or system influenza virus
JJ peptide = test: ELISA cross-reaction of induced IgGs with JJ peptide coated on plate; assay type: binding; settings: IgGs induced by the peptide, FIG. 2A, 2B
Description: as §2, §3, §1

[7] = system: influenza viruses of the H5 subtype; design: species or system influenza virus
[8] = system: H7 subtype of hemagglutinin; assay type: binding, influenza virus
protease = settings: phenylalanine residues of JJ substituted

## GLFGAIAGFIE [JJ]
[1]
  induction of antibody (specific anti-JJ IgG): induced antibody (IgG) production
[2]
  inhibition of hemagglutination by induced antibodies: able to inhibit hemagglutination
[3]
  reaction of antibodies generated with the peptide with hemagglutinin: reacted
[4]
  reaction of antibodies generated with the peptide with hemagglutinin: reacted
[5]
  reaction of antibodies generated with the peptide with hemagglutinin: reacted
[6]
  inhibition of hemagglutination by induced antibodies: able to inhibit hemagglutination
JJ peptide
  binding of induced IgGs to JJ peptide (cross-reaction): bind the JJ peptide
[7]
  inhibition of hemagglutination by induced antibodies: able to inhibit hemagglutination
[8]
  reaction of antibodies generated with the peptide with hemagglutinin: reacted

## GLMGAIAGPIEF [JJ-2]
protease
  protease resistance: protease-resistant

## GLHGAIAGLIENGW [JJ-4]
protease
  protease resistance: protease-resistant

## GLLGAIAGPIEGGW [JJ-3]
protease
  protease resistance: protease-resistant
[1]; higher doses (15 μg and 45 μg), ELISA with peptide JJ-3 coated, FIG. 2C
  induction of antibody (specific anti-JJ3 IgG): induced the production of specific anti-JJ3 antibodies

## GLLGAIAGPIEF [JJ-1]
protease
  protease resistance: protease-resistant
[1]
  induction of antibody (specific anti-JJ IgG): efficiently induce IgG production
[2]
  inhibition of hemagglutination by induced antibodies: able to inhibit hemagglutination
[3]
  reaction of antibodies generated with the peptide with hemagglutinin: reacted
[4]
  reaction of antibodies generated with the peptide with hemagglutinin: reacted
[5]
  reaction of antibodies generated with the peptide with hemagglutinin: reacted
[6]
  inhibition of hemagglutination by induced antibodies: able to inhibit hemagglutination
JJ peptide
  binding of induced IgGs to JJ peptide (cross-reaction): bind the JJ peptide
[7]
  inhibition of hemagglutination by induced antibodies: able to inhibit hemagglutination
[8]
  reaction of antibodies generated with the peptide with hemagglutinin: reacted
